Patent US12435061B2 (priority 2020, dated 2025)
Values after ≈ are worked out from the molar mass of the structure shown. Values joined by “and” are separate entries in the source; they are usually repeats but may differ in a detail not shown here. Equal entries are not always repeated.

Assays:
[1] = target: T1, hTRPV3 (Homo sapiens (Human), UniProt Q8NET8); assay: Whole-cell patch clamp, hTRPV3 Phase 1 / Phase 2 currents; assay type: cell-based
How it was run: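 Currents are activated by 20 μM 2-APB or by perfusate at 28 °C or warmer, in Ringer's solution, and quantified at ±80 mV.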

[2] = Aqueous solubility assay in Normal Ringer Solution; settings: Normal Ringer Solution; for solubility at 40 min: saline or isotonic, kinetic from dmso stock
Description: Following vortex and incubation for a sufficient time (e.g. 40 minutes at room temperature), solutions were filtered, quenched with acetonitrile, and analyzed by Liquid Chromotography. Solubility Limits were determined by comparison to a standard curve.

[3] = target: T1, hTRPV3; assay: hTRPV3 HAMA IC50 assay (Hamamatsu FDSS6000 calcium flux, TRex-293 cells)
Description: IC50s were calculated using CBIS from ChemInnovation (San Diego).

[4] = Metabolic Stability assay, rat liver microsomes; assay type: in vitro ADME; settings: for half-life at 1 μM: read-out: LM T1/2 (min) (rat)
How it was run: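 Reactions in human or rat liver microsomes at 37 °C were started with an NADPH-regenerating system, using 1 μM compound initially. Samples were taken at 0, 7, 15, 30 and 60 min, quenched in ice-cold acetonitrile/MeOH/H2O, and quantified by HPLC/MS/MS.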

[5] = Phase 1 current, inward, whole-cell patch clamp, read-out: hTRPV3 Patch P1 Inwd
[6] = Phase 1 current, read-out: hTRPV3 (nM) (Phase 1)
[7] = Phase 2 current, inward, whole-cell patch clamp, read-out: hTRPV3 Patch P2 Inwd
[8] = Phase 2 current, read-out: hTRPV3 (nM) (Phase 2)
[9] = hTRPV3 HAMA IC50 (nM) (5 min), 5 min
[10] = read-out: hTRPV3 (nM) (Phase 1)
[11] = hTRPV3 HAMA IC50 (nM) (30 min), 30 min

T1 sequence (Q8NET8 whole entry): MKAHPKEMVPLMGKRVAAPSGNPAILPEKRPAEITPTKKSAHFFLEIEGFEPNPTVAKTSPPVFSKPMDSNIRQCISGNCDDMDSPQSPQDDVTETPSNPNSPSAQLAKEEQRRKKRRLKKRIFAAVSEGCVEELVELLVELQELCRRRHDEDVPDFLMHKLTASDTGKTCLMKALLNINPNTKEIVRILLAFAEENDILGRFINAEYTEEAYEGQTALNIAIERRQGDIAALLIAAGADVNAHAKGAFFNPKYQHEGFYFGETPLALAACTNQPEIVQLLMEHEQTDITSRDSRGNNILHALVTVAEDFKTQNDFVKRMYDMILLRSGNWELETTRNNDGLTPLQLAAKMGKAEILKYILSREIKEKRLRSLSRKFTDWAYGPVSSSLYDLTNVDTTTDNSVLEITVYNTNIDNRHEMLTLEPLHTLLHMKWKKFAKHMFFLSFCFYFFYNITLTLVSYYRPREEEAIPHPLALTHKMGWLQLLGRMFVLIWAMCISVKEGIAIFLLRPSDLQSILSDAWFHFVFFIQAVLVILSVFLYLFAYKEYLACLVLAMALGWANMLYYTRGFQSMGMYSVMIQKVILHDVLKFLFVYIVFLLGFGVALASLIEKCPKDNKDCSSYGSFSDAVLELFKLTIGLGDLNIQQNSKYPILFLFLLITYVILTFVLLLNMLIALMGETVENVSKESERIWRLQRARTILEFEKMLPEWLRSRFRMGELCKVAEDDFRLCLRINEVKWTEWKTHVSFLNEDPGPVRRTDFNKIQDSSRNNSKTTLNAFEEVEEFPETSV

Row | SMILES | IC50 [1, 5] [nM] | IC50 [1, 6] [nM] | IC50 [1, 7] [nM] | IC50 [1, 8] [nM] | solubility at 40 min [2] [µM] | hTRPV3 HAMA IC50 (nM) (5 min) ([3]; 5 min) | half-life at 1 μM [4] [min] | Solubility Ringer (nM) ([2]; room temperature) | IC50 [3, 9] | Solubility Ringer ([2]; room temperature) [µM] | IC50 ([3]; read-out: hTRPV3 HAMA IC50 (nM) (5 min), 5 min) | LM T1/2 (min) (rat) ([4]; 1 μM) | IC50 ([1]; hTRPV3 Patch P1 Inwd (nM)) [nM] | IC50 [1, 10] [nM] | IC50 [3, 11] [nM] | hTRPV3 HAMA IC50 (nM) (30 min) ([3]; 30 min)
1 | NC(=O)c1cc(Cl)ccc1N1CC[C@H](Oc2ccc(C(F)(F)F)cn2)C1 [Compound 1-31, (S)-5-chloro-2-(3-(5-(trifluoromethyl)pyridin-2-yloxy)pyrrolidin-1-yl)benzamide] | 100 to 1000 | ~883 | 100 to 1000 | 546 | > 16.8 | no fit (5 min) | 34.3 |  |  |  |  |  |  |  |  | 
2 | NC(=O)c1cc(-c2ccccc2)ccc1N1CC[C@H](Oc2ccc(C(F)(F)F)cn2)C1 [Compound 1-32, (S)-4-(3-(5-(trifluoromethyl)pyridin-2-yloxy)pyrrolidin-1-yl)biphenyl-3-carboxamide] | 100 to 1000 | 285 | 100 to 1000 | 273 |  | no fit (5 min) | 44.3 | BLQ |  |  |  |  |  |  |  | 
3 | OCc1cc(-c2ccccc2)ccc1N1CC[C@H](Oc2ccc(C(F)(F)F)cn2)C1 [Compound 1-115, (S)-(4-(3-(5-(trifluoromethyl)pyridin-2-yloxy)pyrrolidin-1-yl)biphenyl-3-yl)methanol] | 10 to 100 | 74.2 | 10 to 100 | 59 | 0.37 (≈ 0.153 µg/mL) |  | 45.8 |  | > 20000 nM and 5860 nM |  |  |  |  |  |  | 
4 | CC(O)c1cc(-c2ccccc2)ccc1N1CC[C@H](Oc2ccc(C(F)(F)F)cn2)C1 (stereo partly drawn) [Compound 1-121, 1-(4-((S)-3-(5-(trifluoromethyl)pyridin-2-yloxy)pyrrolidin-1-yl)biphenyl-3-yl)ethanol] | 10 to 100 | 102 |  |  |  | no fit (5 min) | 33.3 | BLQ |  |  |  |  |  |  |  | 
5 | NC(=O)c1cc(C(=O)c2ccccc2)ccc1N1CC[C@H](Oc2ccc(C(F)(F)F)cn2)C1 [Compound 1-130, (S)-5-benzoyl-2-(3-(5-(trifluoromethyl)pyridin-2-yloxy)pyrrolidin-1-yl)benzamide] | > 1000 | 1540 |  |  | ~12.2 (≈ 5.56 µg/mL) | no fit (5 min) | 67 |  |  |  |  |  |  |  |  | 
6 | Cc1cccnc1O[C@H]1CCN(c2ccc(-c3ccccc3)cc2CO)C1 [Compound 1-131, (S)-(4-(3-(3-methylpyridin-2-yloxy)pyrrolidin-1-yl)biphenyl-3-yl)methanol] | 100 to 1000 | 148 |  |  | ~0.62 (≈ 0.223 µg/mL) | no fit (5 min) | 23.5 |  |  |  |  |  |  |  |  | 
7 | OCCOc1cc(-c2ccccc2)ccc1N1CC[C@H](Oc2ccc(C(F)(F)F)cn2)C1 [Compound 1-135, (S)-2-(4-(3-(5-(trifluoromethyl)pyridin-2-yloxy)pyrrolidin-1-yl)biphenyl-3-yloxy)ethanol] | 100 to 1000 | 765 |  |  | 0.19 (≈ 0.0844 µg/mL) | no fit (5 min) | 69.7 |  |  |  |  |  |  |  |  | 
8 | NC(=O)c1cc(C(O)c2ccccc2)ccc1N1CC[C@H](Oc2ncccc2Cl)C1 (stereo partly drawn) [Compound 1-137, 2-((S)-3-(3-chloropyridin-2-yloxy)pyrrolidin-1-yl)-5-(hydroxy(phenyl)methyl)benzamide] | > 1000 | 2980 |  |  | > 17.7 | no fit (5 min) | 8.72 |  |  |  |  |  |  |  |  | 
9 | OCCCc1cc(-c2ccccc2)ccc1N1CC[C@H](Oc2ccc(C(F)(F)F)cn2)C1 [Compound 1-138, (S)-3-(4-(3-(5-(trifluoromethyl)pyridin-2-yloxy)pyrrolidin-1-yl)biphenyl-3-yl)propan-1-ol] | 100 to 1000 | 275 |  |  |  | no fit (5 min) | 62.4 | BLQ |  |  |  |  |  |  |  | 
10 | OCc1nc(Oc2ccccc2)ccc1N1CC[C@H](Oc2ccc(C(F)(F)F)cn2)C1 [Compound 1-139, (S)-(6-phenoxy-3-(3-(5-(trifluoromethyl)pyridin-2-yloxy)pyrrolidin-1-yl)pyridin-2-yl)methanol] | 10 to 100 | 23.6 |  |  |  |  |  |  |  | ~0.3 (≈ 0.129 µg/mL) | 5750 | 30.7 (rat) min |  |  |  | 
11 | NC(=O)c1cc(Cc2ccccc2)ccc1N1CC[C@H](Oc2ccc(C(F)(F)F)cn2)C1 [Compound 1-140, (S)-5-benzyl-2-(3-(5-(trifluoromethyl)pyridin-2-yloxy)pyrrolidin-1-yl)benzamide] |  |  |  |  |  | no fit (5 min) | 27.7 | BLQ |  |  |  |  | 100 to 1000 | 710 |  | 
12 | NC(=O)c1cc(C(O)c2ccccc2)ccc1N1CC[C@H](Oc2ccc(C(F)(F)F)cn2)C1 (stereo partly drawn) [Compound 1-146, 5-(hydroxy(phenyl)methyl)-2-((S)-3-(5-(trifluoromethyl)pyridin-2-yloxy)pyrrolidin-1-yl)benzamide] | 100 to 1000 | 686 |  |  | > 13.3 |  | 45.8 |  | 11800 nM |  |  |  |  |  |  | 
13 | OCc1cc(Oc2ccccc2)ccc1N1CC[C@H](Oc2ncccc2Cl)C1 [Compound 1-168, (S)-(2-(3-(3-chloropyridin-2-yloxy)pyrrolidin-1-yl)-5-phenoxyphenyl)methanol] | 10 to 100 | 61.2 | 10 to 100 | 90.5 | ~0.5 (≈ 0.198 µg/mL) |  | 26.7 |  | > 20000 nM |  |  |  |  |  |  | 
14 | Cc1ccccc1Oc1ccc(N2CC[C@H](Oc3ncccc3Cl)C2)c(CO)c1 [Compound 1-173, (S)-(2-(3-(3-chloropyridin-2-yloxy)pyrrolidin-1-yl)-5-(o-tolyloxy)phenyl)methanol] | 10 to 100 | ~29 | 10 to 100 | 34.7 |  |  | 27.9 | BLQ | > 20000 nM and 12000 nM |  |  |  |  |  | 1900 | 
15 | COc1ccccc1Oc1ccc(N2CC[C@H](Oc3ncccc3Cl)C2)c(CO)c1 [Compound 1-221, (S)-(2-(3-(3-chloropyridin-2-yloxy)pyrrolidin-1-yl)-5-(2-methoxyphenoxy)phenyl)methanol] |  |  |  |  | ~2.9 (≈ 1.24 µg/mL) | no fit | 12.9 |  |  |  |  |  | 100 to 1000 | 159 | 19400 | 
16 | CCc1ccccc1Oc1ccc(N2CC[C@H](Oc3ncccc3Cl)C2)c(CO)c1 [Compound 1-222, (S)-(2-(3-(3-chloropyridin-2-yloxy)pyrrolidin-1-yl)-5-(2-ethylphenoxy)phenyl)methanol] | < 10 | 3.91 |  |  |  | no fit | 18.7 | BLQ |  |  |  |  |  |  | 1790 | 
17 | OCc1cc(Oc2ccccc2Cl)ccc1N1CC[C@H](Oc2ncccc2Cl)C1 [Compound 1-223, (S)-(5-(2-chlorophenoxy)-2-(3-(3-chloropyridin-2-yloxy)pyrrolidin-1-yl)phenyl)methanol] | 10 to 100 | 39.3 | 10 to 100 | 13.3 |  | no fit | 17.2 | BLQ |  |  |  |  |  |  | 14600 | 
18 | CCc1ccccc1-c1ccc(CO)c(N2CC[C@H](Oc3ncccc3Cl)C2)c1 [Compound 1-229, (S)-(3-(3-(3-chloropyridin-2-yloxy)pyrrolidin-1-yl)-2′-ethylbiphenyl-4-yl)methanol] | 10 to 100 | 69.2 |  |  | 0.16 (≈ 0.0654 µg/mL) | no fit (5 min) no fit (30 min) | 4.46 |  |  |  |  |  |  |  |  | no fit (5 min) no fit (30 min)
19 | OCc1ccc(Oc2ccccc2Cl)cc1N1CC[C@H](Oc2ncccc2Cl)C1 [Compound 1-232, (S)-(4-(2-chlorophenoxy)-2-(3-(3-chloropyridin-2-yloxy)pyrrolidin-1-yl)phenyl)methanol] | 10 to 100 | ~72.5 |  |  | 0.25 (≈ 0.108 µg/mL) | no fit (5 min) no fit (30 min) | 5.87 |  |  |  |  |  |  |  |  | no fit (5 min) no fit (30 min)
20 | CCc1ccccc1Oc1ccc(CO)c(N2CC[C@H](Oc3ncccc3Cl)C2)c1 [Compound 1-233, (S)-(2-(3-(3-chloropyridin-2-yloxy)pyrrolidin-1-yl)-4-(2-ethylphenoxy)phenyl)methanol] | 10 to 100 | ~21.6 |  |  |  | no fit | 10.4 | BLQ |  |  |  |  |  |  | > 20000 | 
21 | Cc1ccccc1Oc1ccc(N2CC[C@H](Oc3ncccc3Cl)C2)c(CCO)c1 [Compound 1-235, (S)-2-(2-(3-(3-chloropyridin-2-yloxy)pyrrolidin-1-yl)-5-(o-tolyloxy)phenyl)ethanol] | 10 to 100 | 19.9 |  |  |  |  | 21.9 | BLQ | > 20000 nM |  |  |  |  |  | 6600 | 
